Values quoted from earlier work, collected in patent US5766627A, “Multivescular liposomes with controlled release of encapsulated biologically active substances” (priority 1997, dated 1998).

Tests used:
[1] = free amikacin, background statement
[2] = system: strains of gram negative bacteria; settings: clinical, background statement
[3] = system: strains of gram positive bacteria; settings: clinical, background statement

NCC[C@H](O)C(=O)N[C@@H]1C[C@H](N)[C@@H](O[C@H]2O[C@H](CN)[C@@H](O)[C@H](O)[C@H]2O)[C@H](O)[C@H]1O[C@H]1O[C@H](CO)[C@@H](O)[C@H](N)[C@H]1O [amikacin]
serum half-life [1]: two to three | activity against gram negative bacteria [2]: clinically significant activity | activity against gram positive bacteria [3]: clinically significant activity
